Results as given in the supplement of paper PMC10307832.

What was measured:
Test in all cases: relative viability (nuclei count vs DMSO), 5 days (fraction); higher = more cells survive
201T = tested on: 201T
Procedure, shortened: (§1)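 Lung cancer cell lines in 1536-well plates got either a single drug or a fixed anchor-drug dose together with five library-drug doses (not always all listed) in √10 steps, by pin tool, on the day after seeding. Nuclei were counted after 5 days, and relative viability is the treated-to-vehicle ratio of nuclei counts. Values are medians of duplicate plates.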

COR-L23 = tested on: COR-L23
Procedure, shortened: as §1

ChaGo-K-1 = tested on: ChaGo-K-1
Procedure, shortened: as §1

HARA = tested on: HARA
Procedure, shortened: as §1

HCC-15 = tested on: HCC-15
Procedure, shortened: as §1

HCC-366 = tested on: HCC-366
Procedure, shortened: as §1

HCC-78 = tested on: HCC-78
Procedure, shortened: as §1

LCLC-97TM1 = tested on: LCLC-97TM1
Procedure, shortened: as §1

LK-2 = tested on: LK-2
Procedure, shortened: as §1

LOU-NH91 = tested on: LOU-NH91
Procedure, shortened: as §1

NCI-H1355 = tested on: NCI-H1355
Procedure, shortened: as §1

NCI-H1650 = tested on: NCI-H1650
Procedure, shortened: as §1

NCI-H1734 = tested on: NCI-H1734
Procedure, shortened: as §1

NCI-H1792 = tested on: NCI-H1792
Procedure, shortened: as §1

NCI-H1975 = tested on: NCI-H1975
Procedure, shortened: as §1

NCI-H1993 = tested on: NCI-H1993
Procedure, shortened: as §1

NCI-H2085 = tested on: NCI-H2085
Procedure, shortened: as §1

NCI-H2405 = tested on: NCI-H2405
Procedure, shortened: as §1

NCI-H3122 = tested on: NCI-H3122
Procedure, shortened: as §1

NCI-H460 = tested on: NCI-H460
Procedure, shortened: as §1

NCI-H520 = tested on: NCI-H520
Procedure, shortened: as §1

NCI-H838 = tested on: NCI-H838
Procedure, shortened: as §1

SK-LU-1 = tested on: SK-LU-1
Procedure, shortened: as §1

C=C1C(=O)O[C@@H](CCCCCCCC)[C@@H]1C(=O)O [C-75] + Cc1nc(Nc2ncc(C(=O)Nc3c(C)cccc3Cl)s2)cc(N2CCN(CCO)CC2)n1 [Dasatinib] (partner 0.075 µM)
relative viability (201T; first compound 0.08 µM): 0.612
relative viability (201T; first compound 0.253 µM): 0.707
relative viability (201T; first compound 0.8 µM): 0.568
relative viability (201T; first compound 2.53 µM): 0.511
relative viability (201T; first compound 8 µM): 0.56
relative viability (COR-L23; first compound 0.08 µM): 0.518
relative viability (COR-L23; first compound 0.253 µM): 0.532
relative viability (COR-L23; first compound 0.8 µM): 0.489
relative viability (COR-L23; first compound 2.53 µM): 0.328
relative viability (COR-L23; first compound 8 µM): 0.48
relative viability (ChaGo-K-1; first compound 0.08 µM): 0.675
relative viability (ChaGo-K-1; first compound 0.253 µM): 0.463
relative viability (ChaGo-K-1; first compound 0.8 µM): 0.567
relative viability (ChaGo-K-1; first compound 2.53 µM): 0.393
relative viability (ChaGo-K-1; first compound 8 µM): 0.593
relative viability (HARA; first compound 0.08 µM): 0.257
relative viability (HARA; first compound 0.253 µM): 0.241
relative viability (HARA; first compound 0.8 µM): 0.239
relative viability (HARA; first compound 2.53 µM): 0.178
relative viability (HARA; first compound 8 µM): 0.298
relative viability (HCC-15; first compound 0.08 µM): 0.644
relative viability (HCC-15; first compound 0.253 µM): 0.571
relative viability (HCC-15; first compound 0.8 µM): 0.602
relative viability (HCC-15; first compound 2.53 µM): 0.498
relative viability (HCC-15; first compound 8 µM): 0.528
relative viability (HCC-366; first compound 0.08 µM): 0.744
relative viability (HCC-366; first compound 0.253 µM): 0.623
relative viability (HCC-366; first compound 0.8 µM): 0.605
relative viability (HCC-366; first compound 8 µM): 0.443
relative viability (HCC-78; first compound 0.08 µM): 0.418
relative viability (HCC-78; first compound 0.253 µM): 0.469
relative viability (HCC-78; first compound 0.8 µM): 0.341
relative viability (HCC-78; first compound 2.53 µM): 0.274
relative viability (HCC-78; first compound 8 µM): 0.347
relative viability (LCLC-97TM1; first compound 0.08 µM): 0.799
relative viability (LCLC-97TM1; first compound 0.253 µM): 0.807
relative viability (LCLC-97TM1; first compound 0.8 µM): 0.883
relative viability (LCLC-97TM1; first compound 2.53 µM): 0.704
relative viability (LCLC-97TM1; first compound 8 µM): 0.874
relative viability (LK-2; first compound 0.08 µM): 0.388
relative viability (LK-2; first compound 0.253 µM): 0.433
relative viability (LK-2; first compound 0.8 µM): 0.309
relative viability (LK-2; first compound 2.53 µM): 0.237
relative viability (LK-2; first compound 8 µM): 0.291
relative viability (LOU-NH91; first compound 0.08 µM): 0.605
relative viability (LOU-NH91; first compound 0.253 µM): 0.527
relative viability (LOU-NH91; first compound 0.8 µM): 0.492
relative viability (LOU-NH91; first compound 2.53 µM): 0.414
relative viability (LOU-NH91; first compound 8 µM): 0.544
relative viability (NCI-H1355; first compound 0.08 µM): 0.71
relative viability (NCI-H1355; first compound 0.253 µM): 0.613
relative viability (NCI-H1355; first compound 0.8 µM): 0.702
relative viability (NCI-H1355; first compound 2.53 µM): 0.649
relative viability (NCI-H1355; first compound 8 µM): 0.775
relative viability (NCI-H1650; first compound 0.08 µM): 0.334
relative viability (NCI-H1650; first compound 0.253 µM): 0.359
relative viability (NCI-H1650; first compound 2.53 µM): 0.31
relative viability (NCI-H1650; first compound 8 µM): 0.305
relative viability (NCI-H1734; first compound 0.08 µM): 0.525
relative viability (NCI-H1734; first compound 0.253 µM): 0.415
relative viability (NCI-H1734; first compound 0.8 µM): 0.465
relative viability (NCI-H1734; first compound 2.53 µM): 0.351
relative viability (NCI-H1734; first compound 8 µM): 0.337
relative viability (NCI-H1792; first compound 0.08 µM): 0.788
relative viability (NCI-H1792; first compound 0.253 µM): 0.623
relative viability (NCI-H1792; first compound 0.8 µM): 0.724
relative viability (NCI-H1792; first compound 2.53 µM): 0.503
relative viability (NCI-H1792; first compound 8 µM): 0.692
relative viability (NCI-H1975; first compound 0.08 µM): 0.364
relative viability (NCI-H1975; first compound 0.253 µM): 0.432
relative viability (NCI-H1975; first compound 0.8 µM): 0.318
relative viability (NCI-H1975; first compound 2.53 µM): 0.324
relative viability (NCI-H1975; first compound 8 µM): 0.404
relative viability (NCI-H1993; first compound 0.08 µM): 0.568
relative viability (NCI-H1993; first compound 0.253 µM): 0.861
relative viability (NCI-H1993; first compound 0.8 µM): 0.475
relative viability (NCI-H1993; first compound 2.53 µM): 0.553
relative viability (NCI-H1993; first compound 8 µM): 0.602
relative viability (NCI-H2085; first compound 0.08 µM): 0.264
relative viability (NCI-H2085; first compound 0.253 µM): 0.309
relative viability (NCI-H2085; first compound 0.8 µM): 0.284
relative viability (NCI-H2085; first compound 2.53 µM): 0.266
relative viability (NCI-H2085; first compound 8 µM): 0.259
relative viability (NCI-H2405; first compound 0.08 µM): 0.196
relative viability (NCI-H2405; first compound 0.253 µM): 0.191
relative viability (NCI-H2405; first compound 0.8 µM): 0.188
relative viability (NCI-H2405; first compound 2.53 µM): 0.216
relative viability (NCI-H2405; first compound 8 µM): 0.22
relative viability (NCI-H3122; first compound 0.08 µM): 0.832
relative viability (NCI-H3122; first compound 0.253 µM): 0.798
relative viability (NCI-H3122; first compound 0.8 µM): 0.583
relative viability (NCI-H3122; first compound 2.53 µM): 0.594
relative viability (NCI-H3122; first compound 8 µM): 0.742
relative viability (NCI-H460; first compound 0.08 µM): 0.592
relative viability (NCI-H460; first compound 0.253 µM): 0.364
relative viability (NCI-H460; first compound 0.8 µM): 0.415
relative viability (NCI-H460; first compound 2.53 µM): 0.258
relative viability (NCI-H460; first compound 8 µM): 0.383
relative viability (NCI-H520; first compound 0.08 µM): 0.188
relative viability (NCI-H520; first compound 0.253 µM): 0.206
relative viability (NCI-H520; first compound 0.8 µM): 0.206
relative viability (NCI-H520; first compound 2.53 µM): 0.182
relative viability (NCI-H520; first compound 8 µM): 0.179
relative viability (NCI-H838; first compound 0.08 µM): 0.242
relative viability (NCI-H838; first compound 0.253 µM): 0.239
relative viability (NCI-H838; first compound 0.8 µM): 0.274
relative viability (NCI-H838; first compound 2.53 µM): 0.26
relative viability (NCI-H838; first compound 8 µM): 0.268
relative viability (SK-LU-1; first compound 0.08 µM): 0.168
relative viability (SK-LU-1; first compound 0.253 µM): 0.175
relative viability (SK-LU-1; first compound 0.8 µM): 0.166
relative viability (SK-LU-1; first compound 2.53 µM): 0.127
relative viability (SK-LU-1; first compound 8 µM): 0.172
